Test system: CD-1 mice
Experiment: In vivo efficacy test - marble burying
Parameters: species or system mouse
Conditions: male CD-1 mice, 10 and 30 mg/kg po, dosed 30 min prior to test; doses tested 1, 3, 10 and 30 mg/kg; one-way ANOVA with Dunnett's post-hoc test

**Q.** Which “number of marbles buried versus vehicle group” value does the source give for `N#Cc1cc(Cl)cc(-c2cc(-c3ccc(F)cn3)ncn2)c1` [Example 17, 3-chloro-5-[6-(5-fluoropyridin-2-yl)pyrimidin-4-yl]benzonitrile] here?
**A.** statistically significant decrease in the number of marbles buried
